Our source for the IC50 values is ChEMBL document CHEMBL1157255, “Flavan-4-ol Glycosides from the Rhizomes of Abacopteris penangiana” (J Nat Prod, 2006).

Each structure is given as a SMILES string. ≈ marks a conversion by molar mass, not a printed value.

This assay concerns HepG2. In words: Cytotoxicity against human HepG2 cells by MTT assay. Format: functional, cell-based.
In turn, `COc1ccc([C@@H]2C[C@@H]3O[C@H]4[C@H](Oc5c(C)c(O)c(C)c(c53)O2)O[C@H](CO)[C@@H](O)[C@@H]4OC(C)=O)cc1` returned an IC50 of 4.1 µg/mL (≈ 8.16 µM).

Take `COc1ccc([C@@H]2C[C@@H]3O[C@H]4[C@H](Oc5c(C)c(O)c(C)c(c53)O2)O[C@H](COC(C)=O)[C@@H](O)[C@@H]4O)cc1`: it took 3.5 µg/mL (≈ 6.96 µM) to reach half-maximal inhibition (IC50).

Regarding `COc1ccc([C@@H]2C[C@@H](O)c3c(c(C)c4c(c3O[C@@H]3O[C@H](CO)[C@@H](O)[C@H](O)[C@H]3O)CO[C@H]3[C@H](O4)O[C@H](CO)[C@@H](O)[C@@H]3O)O2)cc1`, half-maximal inhibition (IC50) required 3.1 µg/mL (≈ 4.85 µM). Consider `COc1ccc([C@@H]2C[C@@H]3O[C@H]4[C@H](Oc5c(C)c(O)c(C)c(c53)O2)O[C@H](CO)[C@@H](O)[C@@H]4O)cc1` [ABACOPTERIN C], for which half-maximal inhibition (IC50) was put at 4 µg/mL (≈ 8.69 µM). The figure for `O=c1[nH]cc(F)c(=O)[nH]1` [FLUOROURACIL] is 1.3 µg/mL (≈ 9.99 µM). The figure for `COc1ccc([C@@H]2C[C@@H](O)c3c(c(C)c(O[C@@H]4O[C@H](CO)[C@@H](O)[C@H](O)[C@H]4O)c(CO)c3O[C@@H]3O[C@H](CO)[C@@H](O)[C@H](O)[C@H]3O)O2)cc1` [TRIPHYLLIN A] is 5.7 µg/mL (≈ 8.68 µM).
